In patent US6410558B1, “Fungicides for the control of take-all disease of plants” (Monsanto Technology LLC, priority 1991, dated 2002):

System: Gaeumannomyces graminis var. tritici (Ggt)
Test: In vitro Assay: mycelial growth of Ggt on minimal media agar plates containing test compound
Type: cell-based
Details: dark, 19-20° C., 4 to 5 days, diameter of mycelial growth; for inhibition at 0.1 ppm / inhibition at 1 ppm / inhibition at 10 ppm: Gaeumannomyces graminis; for inhibition at 0.1 ppm / In vitro (ppm) 0.1, Percent Inhibition: 0.1 ppm in minimal media agar; for inhibition at 0.1 ppm: read-out: In vitro (ppm) 0.1, Percent Inhibition; for inhibition at 1 ppm / In vitro (ppm) 1, Percent Inhibition: 1 ppm in minimal media agar; for inhibition at 1 ppm: read-out: In vitro (ppm) 1, Percent Inhibition; for inhibition at 10 ppm / In vitro (ppm) 10, Percent Inhibition: 10 ppm in minimal media agar; for inhibition at 10 ppm: read-out: In vitro (ppm) 10, Percent Inhibition
Description: The test compounds (0.25 mL of an appropriate stock solution in acetone) are incorporated into 25 mL minimal media agar [(prepared by autoclaving a solution of 17.5 g Czapek Dox broth (Difco), 7.5 g purified agar or Bacto-agar (Difco), and 500 mL distilled/deionized water, and then adding 50 μL of 1 mg/mL thiamine hydrochloride and 50 μL of 1 mg/mL biotin in 5% ethanol] and plates are prepared.
Each plate is inoculated by placing in a triangular shape three 4-mm plugs of Gaeumannomyces graminis var. tritici (Ggt) grown on the minimal media agar described above. The plates are incubated in the dark at 19-20° C. for 4 to 5 days. The growth of the fungus is measured as the diameter of the mycelial growth. The result is expressed as Percent Inhibition, calculated as [1-[(mm growth on treated plate −4)/(mm growth on control plate −4)]]×100.

| Molecule | inhibition at 0.1 ppm [%] | inhibition at 1 ppm [%] | inhibition at 10 ppm [%] | In vitro (ppm) 0.1, Percent Inhibition | In vitro (ppm) 1, Percent Inhibition | In vitro (ppm) 10, Percent Inhibition [%] |
| --- | --- | --- | --- | --- | --- | --- |
| CN(C(=O)c1c(Cl)cccc1[Si](C)(C)C)C(C)(C)C [Example 23, 2-Chloro-N-(1,1-dimethylethyl)-N-methyl-6-(trimethylsilyl)benzamide] | < 0 | < 0 | 71 |  |  |  |
| CCN(CC)C(=S)c1ccc(C)c(F)c1[Si](C)(C)C [Example 75, N,N-Diethyl-3-fluoro-4-methyl-2-(trimethylsilyl)thiobenzamide] | 5 | 26 | 31 |  |  |  |
| CCNC(=O)c1c(Cl)cccc1-c1ccc2ccccc2c1 [Example 122, 2-Chloro-N-ethyl-6-(2-naphthalenyl)benzamide] | < 0 | < 0 | 67 |  |  |  |
| CCN(CO)C(=O)c1c(C)cccc1[Si](C)(C)C [Example 143, N-Ethyl-N-(hydroxymethyl)-2-methyl-6-(trimethylsilyl)benzamide] | 5 | 13 | 74 |  |  |  |
| CCNC(=O)c1c(Cl)cccc1-c1ccccc1C [Example 72, 3-Chloro-N-ethyl-2′-methyl-[1,1′-biphenyl]-2-carboxamide] | < 0 | 59 | 69 |  |  |  |
| CCNC(=O)c1c([Si](C)(C)C)ccc(C(=O)OC)c1Cl [Example 244, 2-Chloro-3-[(ethylamino)carbonyl]-4-(trimethylsilyl)benzoic acid, methyl ester] | 10 | 20 | 53 |  |  |  |
| C=CCN(SC)C(=O)c1sc(Cl)cc1[Si](C)(C)C [Example 273, 5-Chloro-N-(methylthio)-N-2-propenyl-3-(trimethylsilyl)-2-thiophenecarboxamide] | 35 | 48 | 100 |  |  |  |
| CCNC(=S)c1c(Cl)cccc1[Si](C)(C)C [Example 76, 2-Chloro-N-ethyl-6-(trimethylsilyl)thiobenzamide] | < 0 | 45 | 79 |  |  |  |
| CCN(Cc1ccco1)C(=O)c1c(Cl)cccc1[Si](C)(C)C [Example 125, 2-Chloro-N-ethyl-N-(2-furylmethyl)-6-(trimethylsilyl)benzamide] | < 0 | < 0 | 89 |  |  |  |
| CCNC(=O)c1c(Cl)cccc1[Si](C)(C)C1CCCCC1 [Example 181, 2-Chloro-6-(cyclohexyldimethylsilyl)-N-ethylbenzamide] | 12 | 33 | 58 |  |  |  |
| CCNC(=O)c1cc(Br)sc1[Si](C)(C)C [Example 268, 5-Bromo-N-ethyl-2-(trimethylsilyl)-3-thiophenecarboxamide] | < 0 | < 0 | 100 |  |  |  |
| C/C=C/NC(=O)c1c(Cl)cccc1[Si](C)(C)C [Example 113, (E)-2-Chloro-N-1-propenyl-6-(trimethylsilyl)benzamide] | < 0 | 26 | 96 |  |  |  |
| CCc1ccc([Si](C)(C)C)c(C(=O)N(CC)CC)c1Cl [Example 85, N,N-Diethyl-2-chloro-3-ethyl-6-(trimethylsilyl)benzamide] | 7 | 7 | 59 |  |  |  |
| CCN(CC)C(=O)c1c(Cl)cccc1N(C)C(C)(C)C [Example 281, 2-Chloro-6-[(1,1-dimethylethyl)methylamino]-N,N-(diethyl)benzamide] |  |  |  | 4% | N (If the calculation resulted in “0” or less, as compared to the untreated control, a “N” is shown to indicate no control.) | 43 |
| C[Si](C)(C)c1cccc(Cl)c1C(=O)NCCCCl [Example 30, 2-Chloro-N-(3-chloropropyl)-6-(trimethylsilyl)benzamide] | < 0 | 60 | 80 |  |  |  |
| CCN(CC)C(=O)c1c(C(F)F)cccc1[Si](C)(C)C [Example 97, 2-(Difluoromethyl)-N,N-diethyl-6-(trimethylsilyl)benzamide] | 7 | 70 | 100 |  |  |  |
| CCNC(=O)c1c(Cl)ccc[c]1[Sn]([CH3])([CH3])[CH3] [Example 115, 2-Chloro-N-ethyl-6-(trimethylstannyl)benzamide] |  |  |  | 97% | 97% | 97 |

| Molecule | inhibition at 0.1 ppm [%] | inhibition at 1 ppm [%] | inhibition at 10 ppm [%] | In vitro (ppm) 0.1, Percent Inhibition | In vitro (ppm) 1, Percent Inhibition | In vitro (ppm) 10, Percent Inhibition [%] |
| --- | --- | --- | --- | --- | --- | --- |
| CCNC(=O)c1sc(C)cc1[Si](C)(C)C [Example 256, N-Ethyl-5-methyl-3-(trimethylsilyl)-2-thiophenecarboxamide] | < 0 | < 0 | 100 |  |  |  |
| CCNC(=O)c1c(Cl)ccc(N)c1[Si](C)(C)C [Example 233, 3-Amino-6-chloro-N-ethyl-2-(trimethylsilyl)benzamide] | 28 | 24 | 76 |  |  |  |
| 2-Chloro-N-ethyl-6-(9-phenylethenyl)benzamide [Example 116] |  |  |  | N (If the calculation resulted in “0” or less, as compared to the untreated control, a “N” is shown to indicate no control.) | N (If the calculation resulted in “0” or less, as compared to the untreated control, a “N” is shown to indicate no control.) | 33 |
| CC1C=CC(C)N1C(=O)c1c(Cl)cccc1[Si](C)(C)C (stereo not drawn) [Example 149, 1-[2-Chloro-6-(trimethylsilyl)benzoyl)-2,5-dihydro-2,5-dimethyl-1H-pyrrole] | < 0 | < 0 | 80 |  |  |  |
| C#CCNC(=O)c1c(Br)cccc1[Si](C)(C)C [Example 206, 2-Bromo-N-2-propynyl-6-(trimethylsilyl)benzamide] | 86 | 97 | 100 |  |  |  |
| CCNC(=O)n1nccc1[Si](C)(C)C [Example 284, N-Ethyl-5-(trimethylsilyl)-1H-pyrazole-1-carboxamide] | 23 | 35 | 91 |  |  |  |
| CCNC(=O)c1c([Si](C)(C)C)ccc(C#N)c1Cl [Example 229, 2-Chloro-3-cyano-N-ethyl-6-(trimethylsilyl)benzamide] | < 0 | 28 | 88 |  |  |  |
| CCNC(=O)c1cc([N+](=O)[O-])ccc1[Si](C)(C)C [Example 214, N-Ethyl-5-nitro-2-(trimethylsilyl)benzamide] | 3 | 6 | 77 |  |  |  |
| CCCCCCC(C)N(CC)C(=O)c1c(Cl)cccc1[Si](C)(C)C (stereo not drawn) [Example 96, 2-Chloro-N-ethyl-N-(1-methylheptyl)-6-(trimethylsilyl)benzamide] | 7 | 15 | 48 |  |  |  |
| CC(C)N(O)C(=O)c1c(Cl)cccc1[Si](C)(C)C.[Fe+3].[OH-].[OH-].[OH-] [Example 168, 2-Chloro-N-hydroxy-N-(1-methylethyl)-6-(trimethylsilyl)benzamide, compd. with iron hydroxide (1:1)] |  |  |  | 57% | 96% | 100 |
| CCNC(=O)c1ccncc1[Si](C)(C)C [Example 124, N-Ethyl-3-(trimethylsilyl)-4-pyridinecarboxamide] | < 0 | < 0 | 62 |  |  |  |
| CCNC(=O)c1ccsc1[Si](C)(C)C [Example 70, N-Ethyl-2-(trimethylsilyl)-3-thiophenecarboxamide] | < 0 | 15 | 44 |  |  |  |
| CCNC(=O)c1c(Cl)cc(Cl)cc1[Si](C)(C)C [Example 234, 2,4-Dichloro-N-ethyl-6-(trimethylsilyl)benzamide] | < 0 | 32 | 81 |  |  |  |
| 3-N,N-diethyl-2-(trimethylsilyl)benzamide [Example 15] |  |  |  | N (If the calculation resulted in “0” or less, as compared to the untreated control, a “N” is shown to indicate no control.) | N (If the calculation resulted in “0” or less, as compared to the untreated control, a “N” is shown to indicate no control.) | 44 |
| CN(C)NC(=O)c1c([Si](C)(C)C)ccc(Cl)c1Cl [Example 205, 2,3-Dichloro-6-(trimethylsilyl)benzoic acid, 2,2-dimethylhydrazide] | 5 | 47 | 81 |  |  |  |
| CCN(CC)C(=O)c1cc(C)ccc1[Si](C)(C)C [Example 63, N,N-Diethyl-5-methyl-2-(trimethylsilyl)benzamide] | < 0 | 40 | 69 |  |  |  |
